Results on 18 compounds are retold here after PMC9247985, “Accessing Diverse Pyridine-Based Macrocyclic Peptides by a Two-Site Recognition Pathway” (Journal of the American Chemical Society, 2022).

Where a SMILES comes first, the peptide text is derived from it. Where no end group is shown, it is not given here. The star is where a group is joined. 5FAM = O=C1OC2(c3ccc(O)cc3Oc3cc(O)ccc32)c2ccc(C(=O)*)cc21

One test addresses MroD (Micromonospora rosaria, UniProt A0A136PPB2). Conditions: read-out: IC50 MroD; SEM.
Another test has as its system MroB/C. Briefly: MroB/C dehydration (Dha formation) of in vitro translated MroA2 variants, MALDI-TOF-MS. It is filed as biochemical, Micromonospora rosaria. The note with it: Table S6, MroA2 multi-site variants, 2 μM MBP-MroB, 2 μM MBP-MroC, 1 h room temperature. On the procedure:
in 2 mM NaOAc pH 5.2, and the concentration was assayed using 260 nm absorbance. This tRNA Glu (CUC) was t he n used in the MroBC-catalyzed dehydration assay.
In vitro translation and enzymati c as s ays (dehydration and cyclization). In a 0.65 mL protein low-binding Eppendorf tube placed on ice, 0.75 μL of purified mroA variant template DNA was mixed with 0.75 μL of Solution B and 1 μL of Solution A of PURExpress I n vi t ro Protein Synthesis Kit (E6800L) purchased from NEB (total volume of reaction is 2.5 μL ). The translation reactions were performed at 37°C for 1 hon an aluminum block.
For a full MroBCD substrate scope investigation, a total translation volume for each variant of 7.5 μL was performed.
1.5 μL of 90 mM i odoacet am i de (IAA) was added to quench d ithiothreitol (DTT) in the translation reaction mixture, a thiol -based nucleophile that can react with electrophilic dehydroalanines generated from MroBC-cat al yzed dehydration assays. […]
In the 6 μL part, 10.2 μL of the enzyme mix containing enzymes and cofactors was added along with 1.8 μ L 90 mM ATP (pH 7.5) ,which wasused to initiate the reaction . The enzyme mix was made by adding these components in the following order: HEPES pH 7.5, MgCl2, glutamate, T. bispora tRNAGl u(CUC), thermostable inorganic pyrophosphatase (TIPP), TEV (L56V/S135G/S219V) (w/w ratio with a total amount of MBP-tagged protein = 1: 10), MBP-MroB, MBP-MroC, and T. bispora GluRS. The enzyme mix was incubated 25 min at room temper at ure before adding to the translation product to facilitate in situ TEV -catalyzed cleavage of MBP from MBP -MroB and MBP - MroC. The enzymatic reaction proceeded for 1 h at room temperature. Overal l , the concentration of components in the 18 μL reaction mix is as follows : 50 mM HEPES pH 7.5, 5 mM MgCl2, gl utamate 1 mM, 3 μM T. bi s por a tRNAGlu, 1 μM T. bispora GluRS, 2 μM MBP-MroB, 2 μM MBP-MroC, […], 0.027 U/μL TIPP, and 5 mM IAA. In addition, the […] was incubated with the same buffer lacking enzymes and tRNA as a translation control.
After incubation, the enzyme reaction (18 μ L) was split into two equal parts. One part was treated with MBP-MroD such that the final concentration of MBP-MroD is 3 μM, and the other part was added the same volume but with buffer lacking MBP-MroD (50 mM HEPES, 300 mM NaCl, 2.5% glycerol, 0.5 mM TCEP).The reaction further proceeded for 1.5 h at room temperature. All reaction mixture was then desalted with solid- phase extraction using Ziptip with 0.6 μL C18 resin (EMD Milli por e ) and crystallized on an MTP384 steel target plate using either sa t ur at e d sina pi c ac i d or 50 mg/mL Super DHB [ dissolved in 60% acetonitrile and 0.1% trifluoroacetic acid (TFA )] as the matrix. T he crystallized spots were then analyzed using MALDI-TOF-MS (Bruker Ultraflex). The external standard for MALDI - TOF-MS analysis is ProteoMass Peptide and Protein MALDI -MS Calibration Kit ( Si g ma ) In this work, TEV was used in every variant tested. […]

The target of another test is MBP-MroD (Micromonospora rosaria, UniProt A0A136PPB2). Briefly: biochemical. The source says: Experiments were done in triplicates. Stock
(1 picture or pasted object on this page, not shown here)

The subject of another test is MroB. Conditions: read-out: IC50 MroB; SEM.

Chain of MroD (A0A136PPB2 entry or part of it): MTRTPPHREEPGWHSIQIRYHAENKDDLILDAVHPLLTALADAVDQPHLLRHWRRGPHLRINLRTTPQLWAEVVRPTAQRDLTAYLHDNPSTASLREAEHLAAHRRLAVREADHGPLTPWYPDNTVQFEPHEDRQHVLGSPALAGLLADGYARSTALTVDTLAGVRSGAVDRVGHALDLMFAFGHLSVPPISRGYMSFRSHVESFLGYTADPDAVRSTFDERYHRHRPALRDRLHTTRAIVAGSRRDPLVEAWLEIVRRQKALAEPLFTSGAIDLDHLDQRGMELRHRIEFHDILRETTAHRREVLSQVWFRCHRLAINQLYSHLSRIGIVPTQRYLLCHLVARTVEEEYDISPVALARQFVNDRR
Chain of MBP-MroD (A0A136PPB2 1-366): as the sequence (A0A136PPB2 entry or part of it) above

Turning to “SDLDIVDLDLAVDEELAALSVGGLGNTEVGASGWLGSWVI [Δ12MroA1]”, at MroD, the IC50 (commonly the midpoint of a concentration-inhibition curve) was determined as 90 ± 20 nM.

In the test with MroB/C, “SGGYRPRSWLI [38-H7R, Arg variant of multi-site variant 38]” yielded a Dha formation of 2 Dha. On the same count and under the same terms, then “SGYHFHNRSWLI [54-V8R, Arg variant of multi-site variant 54]”, with 2 Dha.

Regarding “SDLDIVDLDLAVDEELAALSVGGLGNTEVGASGWLGSWGI [Δ12MroA1-V8G]”, the IC50 on MroD turned out to be 1700 ± 400 nM.

For “SGHYKPQRSWLI [55-A8R, Arg variant of multi-site variant 55]”, the Dha formation in the test on MroB/C was found to be 2 Dha. Take “SDLDIVDLDLAVDEELAALSVGGLGNTEVGASGWLGSGVI [Δ12MroA1-W7G]”: the IC50 on MroD turned out to be 2400 ± 300 nM. Consider “SGRYAGRSWLI [39-W7R, Arg variant of multi-site variant 39]”, for which the Dha formation with MroB/C is 2 Dha. “SGREFARSWLI [35-N7R, Arg variant of multi-site variant 35]” came in with a Dha formation with MroB/C of 2 Dha. For `CC[C@H](C)[C@H](NC(=O)[C@@H](NC(=O)[C@H](Cc1c[nH]c2ccccc12)NC(=O)[C@H](CO)NC(=O)CNC(=O)[C@H](CC(C)C)NC(=O)[C@H](Cc1c[nH]c2ccccc12)NC(=O)CNC(=O)[C@H](CO)NC(=O)[C@H](C)NC(=O)CNC(=O)[C@@H](NC(=O)[C@H](CCC(=O)O)NC(=O)[C@@H](NC(=O)[C@H](CC(N)=O)NC(=O)CNC(=O)[C@H](CC(C)C)NC(=O)CNC(=O)CNC(=O)[C@@H](NC(=O)[C@H](CO)NC(=O)[C@H](CC(C)C)NC(=O)[C@H](C)NC(=O)[C@H](C)NC(=O)[C@H](CC(C)C)NC(=O)[C@H](CCC(=O)O)NC(=O)[C@H](CCC(=O)O)NC(=O)[C@H](CC(=O)O)NC(=O)[C@@H](NC(=O)[C@H](C)NC(=O)[C@H](CC(C)C)NC(=O)[C@H](CC(=O)O)NC(=O)[C@H](CC(C)C)NC(=O)[C@H](CC(=O)O)NC(=O)[C@@H](NC(=O)[C@@H](NC(=O)[C@H](CC(=O)O)NC(=O)[C@H](CC(C)C)NC(=O)[C@H](CC(=O)O)NC(=O)[C@H](CO)NC(=O)c1ccc2c(c1)C(=O)OC21c2ccc(O)cc2Oc2cc(O)ccc21)[C@@H](C)CC)C(C)C)C(C)C)C(C)C)[C@@H](C)O)C(C)C)C(C)C)C(=O)O` [fluorescein-Δ12MroA1] (5FAM-SDLDIVDLDLAVDEELAALSVGGLGNTEVGASGWLGSWVI-OH), on MBP-MroD, the Kd (as a rule, a measure of binding affinity in units of concentration) was around 12 nM.

Turning to “SGKALERSWLI [29-F7R, Arg variant of multi-site variant 29]”, in the test with MroB/C, the Dha formation entry was “M ix of 1, 2 Dha”.

As to “SDLDIVDLDLAVDEELAALSVGGLGNTEVGASGWLGSWVG [Δ12MroA1-I9G]”, on MroD, the IC50 was 910 ± 90 nM. Compound “SGLQHGKRSWLI [52-Y8R, Arg variant of multi-site variant 52]” yielded a Dha formation in the test on MroB/C of 2 Dha. On the same count and under the same terms, then “SGQGRNRSWLI [24-V7R, Arg variant of multi-site variant 24]”, with 2 Dha. Consider `CC[C@H](C)[C@H](NC(=O)[C@H](CC(=O)O)NC(=O)[C@H](CC(C)C)NC(=O)[C@H](CC(=O)O)NC(=O)[C@@H](N)CO)C(=O)N[C@H](C(=O)N[C@@H](CC(=O)O)C(=O)N[C@@H](CC(C)C)C(=O)N[C@@H](CC(=O)O)C(=O)N[C@@H](CC(C)C)C(=O)N[C@@H](C)C(=O)N[C@H](C(=O)N[C@@H](CC(=O)O)C(=O)N[C@@H](CCC(=O)O)C(=O)N[C@@H](CCC(=O)O)C(=O)N[C@@H](CC(C)C)C(=O)N[C@@H](C)C(=O)N[C@@H](C)C(=O)N[C@@H](CC(C)C)C(=O)N[C@@H](CO)C(=O)N[C@H](C(=O)NCC(=O)NCC(=O)N[C@@H](CC(C)C)C(=O)NCC(=O)N[C@@H](CC(N)=O)C(=O)N[C@H](C(=O)N[C@@H](CCC(=O)O)C(=O)N[C@H](C(=O)NCC(=O)N[C@@H](C)C(=O)N[C@@H](CO)C(=O)NCC(=O)N[C@@H](Cc1c[nH]c2ccccc12)C(=O)N[C@@H](CC(C)C)C(=O)NCC(=O)N[C@@H](CO)C(=O)N[C@@H](Cc1c[nH]c2ccccc12)C(=O)N[C@H](C(=O)N[C@H](C(=O)OC)[C@@H](C)CC)C(C)C)C(C)C)[C@@H](C)O)C(C)C)C(C)C)C(C)C` [Δ12MroA1-COOMe] (H-SDLDIVDLDLAVDEELAALSVGGLGNTEVGASGWLGSWVI-OMe), for which the half-maximal inhibitory concentration (IC50) on MroD came out at 400 ± 60 nM; with MroB it was 4200 ± 1700 nM. Take “SGYDRQRSWLI [56-Y7R, Arg variant of multi-site variant 56]”: the Dha formation in the test on MroB/C is reported as 2 Dha. Same read-out and setting: as for “SGIAKEVRSWLI [47-Q8R, Arg variant of multi-site variant 47]”, the figure is 2 Dha. On the same count and under the same terms, then “SGDAMRWRSWLI [53-A8R, Arg variant of multi-site variant 53]”, with 2 Dha. Consider “SDLDIVDLDLAVDEELAALSVGGLGNTEVGA [Δ12MroA1 leader]”, for which the IC50 at MroD is 16000 ± 4400 nM.
